Data as given in US20040259823A1, “Cationic amphiphiles as transfection vehicles” (priority 2001, published 2004).

How the values were obtained:
Type in all cases: cell-based
[1] = system: COS-7 and HepG2 cells; assay: Transfection with pCMV GFP plasmid, % GFP positive cells by FACS (cell line not given); conditions: cell line and helper lipid not given
Procedure: (§1) Transfections were carried out following standard protocols as is described in EP 0755924. In numerous publications variations of transfection protocols are given. A person acquainted with the field of non-viral transfections, in particular transfections using cationic amphiphiles will be able to use the cationic amphiphiles of the invention in transfection methods known per se. In standard experiments COS-7 cells are transfected with plasmid DNA containing the β-galactosidase reporter gene. Upon successful transfection the cell produces the enzyme β-galactosidase whose activity can be easily measured. Other plasmids comprising alternative reporter genes such as the gene encoding Green Fluorescent Protein or Chloroamphenicol Acetyl Transferase are suited as well. For analyzing stable transfection a plasmid containing the neomycin resistance gene can be used. Toxicity of the cationic amphiphiles towards the cells can be monitored qualitatively and quantitatively by visual inspection of the cells and by a protein determination.
(§2) A solution of cationic amphiphile in a 50/50 molar ratio with DOPE, DOPC or cholesterol in chloroform was dried under a stream of nitrogen. The residual solvent was removed under vacuum. The lipid film was hydrated in water at room temperature and sonicated to clarity in a bath sonicator immediately before use.
(§3) A 4.7 kb pair plasmid containing the GFP reporter gene under control of the cytomegalovirus immediate early gene promoter/enhancer (pCMV GFP).DNA was isolated from E. coli using a Qiagen Plasmid Kit (QIAGEN Inc, USA). The plasmid concentration was determined by measuring the absoption at 260 nm using the relation 1.0 OD=50 μg/ml. The OD260/OD280 value was 1.95.
(§4) COS-7 and HepG2 cells were cultured in Dulbecco's Modified Eagle Medium (DMEM Gibco The Netherlands) containing 7% of fetal calf serum, 2 mM L-Glutamine, 100 units/ml of penicilin and […] of streptomycin at 37° C. in CO2/air (1:19).
(§5) Cells (1×10^5 cells/well) were seeded in 12-well plates and were allowed to grow overnight.
(§6) The complex of cationic amphiphile/helper lipid (1:1) with pCMV GFP was prepared at the charge ratio 2.5:1 (15 nmol lipid and 1 μg DNA), in 100 μl 10 mM HEPES (pH=7.4, 150 mM NaCl). After 10-15 min incubation at room temperature, the resulting complex was diluted in 1 ml medium (DMEM) and 0.5 ml of the mixture was added to the cells and incubated for 4 h at 37° C. The transfection efficiency expressed as a percentage of GFP positive cells was measured by FACS (Fluorescence Activated Cell Soorting) 48 hours after the transfection.
(§7) Control wells underwent identical steps except that no cationic amphiphile was added.

[2] = system: COS-7 and HepG2 cells; assay: Cell survival after transfection (cell line not given); conditions: cell line and helper lipid not given; for % surv / % surv mean: Table 11
Procedure: as §1, §4, §5, §6, §7

[3] = system: COS-7 and HepG2 cells; assay: Toxicity towards the cells by protein determination versus control wells; conditions: protein determination compared with the reference value of control wells
Procedure: as §1, with “determination. Control wells underwent identical steps except that no cationic amphiphile was added.” for “determination.”

[4] = system: HepG2; assay: Transfection with pCMV GFP plasmid, % GFP positive cells by FACS (Table 3); conditions: HepG2, DOPE
Procedure: as §1, §2, §3, §4, §5, §6, §7

[5] = system: HepG2; assay: Cell survival after transfection (Table 3); conditions: HepG2, DOPE; further: tested at 6.8 µM
Procedure: as §1, §4, §5, §6, §7
Wherever % surv mean is given: tested at 6.8 µM.

SMILES	% TE ([4]; first value) [%]	% TE mean [4] [%]	% TE ([4]; second value) [%]	% surv cells ([5]; first value) [%]	% surv cells Mean [5] [%]	% surv cells ([5]; second value) [%]	% TE ([1]; Table 4) [%]	% TE ([1]; Table 5) [%]	% TE ([1]; Table 6) [%]	% TE ([1]; Table 11, first value) [%]	% TE mean ([1]; Table 11) [%]	% TE ([1]; Table 11, second value) [%]	% surv cells ([2]; Table 4) [%]	% surv cells ([2]; Table 5) [%]	% surv cells ([2]; Table 6) [%]	% surv ([2]; first value) [%]	% surv mean [2] [%]	% surv ([2]; second value) [%]	also measured
CCCCCCCC/C=C\CCCCCCCCCc1cc[n+](CCCCCCCC/C=C\CCCCCCCC)cc1.[Cl-] [SF6, 1-(9′-cis-octadecenyl)-4-(10″-cis-nonadecenyl) pyridinium Chloride]	–	–	–	–	–	–	–	–	–	–	–	–	–	–	–	–	–	–	% TE ([1]; Table 1): 14.44%; % TE ([1]; Table 2): 11.48%; % TE ([1]; Table 7): 30.91%; % TE ([1]; Table 8): 9.96%; % TE ([1]; Table 9): 3.92%; % TE ([1]; Table 10): 9.14%; % surv cells ([2]; Table 1): 75.3%; % surv cells ([2]; Table 2): 47.3%; % surv cells ([2]; Table 7): 84.06%; % surv cells ([2]; Table 8): 57.21%; % surv cells ([2]; Table 9): 70.01%; % surv cells ([2]; Table 10): 61.57%; toxicity towards the cells [3]: marginal toxicity
CCCCCCCC/C=C\CCCCCCCC[n+]1ccc(CCCCCCCCCCC)cc1 [SF43, 1-(9′-cis-octadecenyl)-4-undecyl-pyridinium Chloride]	5.71	5.805	5.9	52.11	53.845	55.58	9.18	0.55	10.22	24.6	24.2	23.8	68.12	85.51	86.86	85.42	84.395	83.37	–
CCCCCCCC/C=C\CCCCCCCC[n+]1ccc(CCCCCCCCCCCCCCC)cc1.[Cl-] [SF44, 1-(9′-cis-octadecenyl)-4-pentadecyl-pyridinium Chloride]	12.53	11.185	9.84	45.21	49.18	53.15	10.13	1.64	8.89	9.1	8.67	8.24	66.51	92.1	93.99	90.36	88.91	87.46	–
CCCCCCCC/C=C\CCCCCCCC[n+]1ccc(CCCCCCCCCCCCCCCCC)cc1.[Cl-] [SF45, 1-(9′-cis-octadecenyl)-4-(heptadecyl) pyridinium Chloride]	8.93	6.465	4	40.24	31.565	22.89	9.71	3.38	5.35	0.27	0.15	0.03	67.4	93.02	92.61	90.01	87.55	85.09	–
CCCCCCCC/C=C\CCCCCCCCCc1cc[n+](CCCCCCCCCCCCCCCCCC)cc1.[Cl-] [SF46, 1-stearyl-4-(10′-cis-nonadecenyl)-pyridinium Chloride]	11.65	9.07	6.49	16.79	15.445	14.1	9.17	2.71	1.11	10.6	10.6	–	72.57	76.34	93.55	87.02	87.02	–	–
CCCCCCCCCCCCOC(=O)c1cc[n+](CCCCCCCCCCCC)cc1.[Cl-] [SF53, 1-dodecyl-4-(-carbo-(dodecyloxy)) pyridinium Chloride]	2.13	2.13	–	37.51	37.51	–	9.04	0.71	0.56	6.67	6.67	–	65.91	91.6	91.74	84.51	84.51	–	–
